Measured values from patent US11109611B2, “Compositions and methods that modulate digestibility in a companion animal” (Societe des Produits Nestle SA, priority 2016, dated 2021).

How the values were obtained:
Format in all cases: in vivo, canine
Settings in all cases: plasma after overnight fasting in fifth week of feeding, correlations with P value < 0.01
Canines [1] = experiment: Metabolite correlations with fiber digestibility (plasma metabolomics)
Description: (§1) 83 Canines were all fed Diet A for 5 weeks, followed by a 1 week transition period and then 15 were fed Diet B for 5 weeks as shown in the Table 1 below. Plasma samples were taken after overnight fasting using EDTA vacutainer tubes during the fifth week of feeding of each diet. After centrifugation, plasma was aliquoted into cryovials and frozen at −80° C.
(§2) Metabolomic analysis was carried out using the following methods by Metabolon Inc. Samples were extracted and split into equal parts for analysis on GC/MS and LC/MS/MS platforms. Proprietary software was used to match ions to an in-house library of standards for metabolite identification and for metabolite quantitation by peak area integration by Metabolon Inc. Mass and retention index are provided in the following tables such that each metabolite can be uniquely identified and individually distinguished.
(§3) At the time of analysis, samples were thawed and extracts prepared to remove protein, dislodge small molecules bound to protein or physically trapped in the precipitated protein matrix, and recover a wide range of chemically diverse metabolites. A separate aliquot of each experimental plasma sample was taken then pooled for the creation of “Client Matrix” (CMTRX) samples. These CMTRX samples were injected throughout the platform run and served as technical replicates, allowing variability in the quantitation of all consistently detected biochemicals to be determined and overall process variability and platform performance to be monitored. Extracts of all experimental and CMTRX samples were split for analysis on the GC/MS and LC/MS/MS platforms.
(§4) The CMTRX technical replicate samples were treated independently throughout the process as if they were client study samples. All process samples (CMTRX and Grob test mixtures of organic components used to assess GC column performance, process blanks, etc.) were spaced evenly among the injections for each day and all client samples were randomly distributed throughout each day's run. Data were collected over multiple platform run days and thus ‘block normalized’ by calculating the median values for each run-day block for each individual compound. […] Missing values (if any) were assumed to be below the level of detection for that biochemical with the instrumentation used and were imputed with the observed minimum for that particular biochemical.
A number of internal standards were added to each experimental and process standard sample just prior to injection into the mass spectrometers. A measure of the platform variability (7%) was determined by calculating the median relative standard deviation (RSD) for these internal standards. Because these standards are added to the samples immediately prior to injection into the instrument, this value reflects instrument variation. In addition, the median relative standard deviation (RSD) for the biochemicals that were consistently measured in the CMTRX represents the total variability within the process for the actual experimental samples and the variability in quantitation of the endogenous metabolites within these samples (12%).
589 total metabolites were detected in plasma. […]
Metabolite correlations with fiber digestibility were determined based on plasma metabolomics (Table 10). […] The metabolite compositions of the two different diets were determined in order to identify relative levels of specific compounds.

Canines [2] = experiment: Metabolite correlations with dry matter digestibility (plasma metabolomics)
Description: as §1, §2, §3, §4
(§5) A number of internal standards were added to each experimental and process standard sample just prior to injection into the mass spectrometers.
Metabolite correlations with dry matter digestibility were determined based on plasma metabolomics (Table 6). […] Feeding different levels of these compounds (diet B vs diet A; Table 7), and noting changes in dry matter digestibility (Table 8), served as a validation model. The metabolite compositions of the two different diets were determined to identify relative levels of specific compounds.

Canines [3] = experiment: Metabolite correlations with organic matter digestibility (plasma metabolomics)
Description: as §1, §2, §3, §4, §5
Metabolite correlations with organic matter digestibility were determined based on plasma metabolomics (Table 2). […] The metabolite compositions of the two different diets were determined to identify relative levels of specific compounds.

**Q.** How did the “Correlation with fiber digestibility” value (Canines [1]) turn out when 1-palmitoylplasmenylethanolamine was run?
**A.** −0.3651

**Q.** What about the “Correlation with dry matter digestibility” value (Canines [2]) of the same compound?
**A.** −0.4127

**Q.** What about the “Correlation with organic matter digestibility” value (Canines [3]) of the same compound?
**A.** −0.4149

**Q.** How did the “Correlation with organic matter digestibility” value (Canines [3]) turn out when `OC[C@H]1OC[C@H](O)[C@@H](O)[C@@H]1O` [1,5-anhydroglucitol (1,5-AG)] was run?
**A.** −0.2973

**Q.** `CCCCCCCCCCCCCCCCC(=O)OC[C@@H](O)COP(=O)(O)OCCN` [1-heptadecanoylglycerophosphoethanolamine] was tested. Which “Correlation with fiber digestibility” value (Canines [1]) did it give?
**A.** −0.4181

**Q.** And the “Correlation with dry matter digestibility” value (Canines [2])?
**A.** −0.4635

**Q.** What about the “Correlation with organic matter digestibility” value (Canines [3]) of the same compound?
**A.** −0.4779

**Q.** With `CCCCC/C=C\C/C=C\CCCCCCCC(=O)OCC(O)COP(=O)(O)OCCN` (centres unmarked) [1-linoleoylglycerophosphoethanolamine] as the compound, how does the “Correlation with organic matter digestibility” value (Canines [3]) read?
**A.** −0.2924

**Q.** Which results are given for `CCCCCCCC/C=C\CCCCCCCC(=O)OCC(O)COP(=O)(O)OCCN` (centres unmarked) [1-oleoylglycerophosphoethanolamine]?
**A.** Correlation with dry matter digestibility (Canines [2]): −0.4501; Correlation with organic matter digestibility (Canines [3]): −0.4678

**Q.** `CCCCCCCCCCCCCCCC(=O)OCC(O)CO` (centres unmarked) [1-palmitoylglycerol (1-monopalmitin)] was tested. Which “Correlation with fiber digestibility” value (Canines [1]) did it give?
**A.** −0.3548

**Q.** Which results are given for `CCC(N)C(=O)O` (centres unmarked) [2-aminobutyrate]?
**A.** Correlation with dry matter digestibility (Canines [2]): 0.4535; Correlation with organic matter digestibility (Canines [3]): 0.4586

**Q.** What does the source list for `CC(C)(O)C(=O)O` [2-hydroxyisobutyrate]?
**A.** Correlation with dry matter digestibility (Canines [2]): 0.2975; Correlation with organic matter digestibility (Canines [3]): 0.3269

**Q.** What does the source list for `CCCCC/C=C\C/C=C\CCCCCCCC(=O)O[C@H](CO)COP(=O)(O)OCCN` [2-linoleoylglycerophosphoethanolamine]?
**A.** Correlation with dry matter digestibility (Canines [2]): −0.3262; Correlation with organic matter digestibility (Canines [3]): −0.3461

**Q.** `CCCCCCCC/C=C\CCCCCCCC(=O)OC(CO)COP(=O)(O)OCCN` (centres unmarked) [2-oleoylglycerophosphoethanolamine] was tested. Which “Correlation with dry matter digestibility” value (Canines [2]) did it give?
**A.** −0.3648

**Q.** And the “Correlation with organic matter digestibility” value (Canines [3])?
**A.** −0.3761

**Q.** With `CC(O)CC(=O)O` (centres unmarked) [3-hydroxybutyrate (BHBA)] as the compound, how does the “Correlation with dry matter digestibility” value (Canines [2]) read?
**A.** 0.3858

**Q.** And the “Correlation with organic matter digestibility” value (Canines [3])?
**A.** 0.4249

**Q.** How did the “Correlation with dry matter digestibility” value (Canines [2]) turn out when `CC(C)C(=O)C(=O)O` [3-methyl-2-oxobutyrate] was run?
**A.** 0.3102

**Q.** What about the “Correlation with organic matter digestibility” value (Canines [3]) of the same compound?
**A.** 0.3345

**Q.** Which results are given for `CCCCC/C=C\C/C=C\C/C=C\C/C=C\CCCCCC(=O)O` [adrenate (22:4n6)]?
**A.** Correlation with dry matter digestibility (Canines [2]): 0.366; Correlation with organic matter digestibility (Canines [3]): 0.4225

**Q.** How did the “Correlation with fiber digestibility” value (Canines [1]) turn out when `Cc1c(C)c2c(c(C)c1O)CC[C@@](C)(CCC[C@H](C)CCC[C@H](C)CCCC(C)C)O2` [alpha-tocopherol] was run?
**A.** −0.3263

**Q.** How did the “Correlation with dry matter digestibility” value (Canines [2]) turn out when `OC[C@@H](O)C(O)[C@H](O)CO` [arabitol] was run?
**A.** −0.369

**Q.** And the “Correlation with organic matter digestibility” value (Canines [3])?
**A.** −0.3609

**Q.** With `CCCCC/C=C\C/C=C\C/C=C\C/C=C\CCCC(=O)O` [arachidonate (20:4n6)] as the compound, how does the “Correlation with dry matter digestibility” value (Canines [2]) read?
**A.** 0.4779

**Q.** And the “Correlation with organic matter digestibility” value (Canines [3])?
**A.** 0.5395

**Q.** What does the source list for `CC(C)(O)CC(=O)O` [beta-hydroxyisovalerate]?
**A.** Correlation with dry matter digestibility (Canines [2]): 0.2994; Correlation with organic matter digestibility (Canines [3]): 0.3342

**Q.** With `N[C@@H](CCC(=O)N[C@@H](CSSC[C@H](N)C(=O)O)C(=O)NCC(=O)O)C(=O)O` [cysteine-glutathione disulfide] as the compound, how does the “Correlation with dry matter digestibility” value (Canines [2]) read?
**A.** −0.5458

**Q.** What about the “Correlation with organic matter digestibility” value (Canines [3]) of the same compound?
**A.** −0.5693

**Q.** For `CCCCC/C=C\C/C=C\CCCCCCCCCC(=O)O` [dihomo-linoleate (20:2n6)], which “Correlation with dry matter digestibility” value (Canines [2]) is on record?
**A.** 0.4696

**Q.** And the “Correlation with organic matter digestibility” value (Canines [3])?
**A.** 0.5242

**Q.** How did the “Correlation with dry matter digestibility” value (Canines [2]) turn out when `CC/C=C\C/C=C\C/C=C\C/C=C\C/C=C\CCCCCC(=O)O` [docosapentaenoate (n3 DPA; 22:5n3)] was run?
**A.** 0.3814

**Q.** And the “Correlation with organic matter digestibility” value (Canines [3])?
**A.** 0.4157

**Q.** What does the source list for `CCCCC/C=C\C/C=C\C/C=C\C/C=C\C/C=C\CCC(=O)O` [docosapentaenoate (n6 DPA; 22:5n6)]?
**A.** Correlation with dry matter digestibility (Canines [2]): 0.4484; Correlation with organic matter digestibility (Canines [3]): 0.4971

**Q.** Which “Correlation with dry matter digestibility” value (Canines [2]) does the source give for `O=C(O)C(O)CO` (centres unmarked) [glycerate] here?
**A.** 0.3423

**Q.** What about the “Correlation with organic matter digestibility” value (Canines [3]) of the same compound?
**A.** 0.3968

**Q.** Which “Correlation with dry matter digestibility” value (Canines [2]) does the source give for `O=C(O)CO` [glycolate (hydroxyacetate)] here?
**A.** 0.3124

**Q.** And the “Correlation with organic matter digestibility” value (Canines [3])?
**A.** 0.3449

**Q.** `CCCCC/C=C\C/C=C\CCCCCCCC(=O)O` [linoleate (18:2n6)] was tested. Which “Correlation with organic matter digestibility” value (Canines [3]) did it give?
**A.** 0.287

**Q.** `CCCCCCCC(=O)O[C@H](CC(=O)O)C[N+](C)(C)C` [octanoylcarnitine] was tested. Which “Correlation with dry matter digestibility” value (Canines [2]) did it give?
**A.** 0.3264

**Q.** And the “Correlation with organic matter digestibility” value (Canines [3])?
**A.** 0.3604

**Q.** Which “Correlation with dry matter digestibility” value (Canines [2]) does the source give for `CCCCCCCCCCCCCCCC(=O)O` [palmitate (16:0)] here?
**A.** 0.2862

**Q.** And the “Correlation with organic matter digestibility” value (Canines [3])?
**A.** 0.3027

**Q.** With `CCCCCC/C=C\CCCCCCCC(=O)O` [palmitoleate (16:1n7)] as the compound, how does the “Correlation with dry matter digestibility” value (Canines [2]) read?
**A.** 0.3089

**Q.** What about the “Correlation with organic matter digestibility” value (Canines [3]) of the same compound?
**A.** 0.3097

**Q.** What does the source list for `O=C(O)C1CCCCN1` (centres unmarked) [pipecolate]?
**A.** Correlation with dry matter digestibility (Canines [2]): 0.3661; Correlation with organic matter digestibility (Canines [3]): 0.415

**Q.** Which “Correlation with fiber digestibility” value (Canines [1]) does the source give for `OC[C@@H](O)[C@@H](O)[C@@H](O)CO` [ribitol] here?
**A.** −0.3122

**Q.** For `C[N+]1(C)CCC[C@H]1C(=O)[O-]` [stachydrine], which “Correlation with dry matter digestibility” value (Canines [2]) is on record?
**A.** −0.3121

**Q.** What about the “Correlation with organic matter digestibility” value (Canines [3]) of the same compound?
**A.** −0.3927

**Q.** With `CCCCCCCCCCCCCCCCCC(=O)O` [stearate (18:0)] as the compound, how does the “Correlation with organic matter digestibility” value (Canines [3]) read?
**A.** 0.2845

**Q.** For `C[n+]1cccc(C(=O)[O-])c1` [trigonelline (N′-methylnicotinate)], which “Correlation with dry matter digestibility” value (Canines [2]) is on record?
**A.** −0.5297

**Q.** And the “Correlation with organic matter digestibility” value (Canines [3])?
**A.** −0.5801

**Q.** What does the source list for arabonate?
**A.** Correlation with dry matter digestibility (Canines [2]): −0.3013; Correlation with organic matter digestibility (Canines [3]): −0.3117

**Q.** Which results are given for campesterol?
**A.** Correlation with dry matter digestibility (Canines [2]): −0.3101; Correlation with organic matter digestibility (Canines [3]): −0.3283

**Q.** Which results are given for dihomo-linolenate (20:3n3 or n6)?
**A.** Correlation with dry matter digestibility (Canines [2]): 0.3649; Correlation with organic matter digestibility (Canines [3]): 0.4357

**Q.** Which results are given for eicosenoate (20:1n9 or 11)?
**A.** Correlation with dry matter digestibility (Canines [2]): 0.3674; Correlation with organic matter digestibility (Canines [3]): 0.4051

**Q.** What does the source list for “linolenate [alpha or gamma; (18:3n3 or 6)]”?
**A.** Correlation with dry matter digestibility (Canines [2]): 0.372; Correlation with organic matter digestibility (Canines [3]): 0.3932

**Q.** For threonate, which “Correlation with dry matter digestibility” value (Canines [2]) is on record?
**A.** 0.3492

**Q.** What about the “Correlation with organic matter digestibility” value (Canines [3]) of the same compound?
**A.** 0.3788
